The values that follow come from ChEMBL document CHEMBL1154132, “Mycophenolic derivatives from Eupenicillium parvum” (J Nat Prod, 2008).

Molecules are shown by their SMILES. The source made the active and inactive calls. No cut-off for these calls is given here.

What all share (type): functional, organism-based
In one assay the test system is Escherichia coli. As to the kind of experiment: Antimicrobial activity against Escherichia coli ATCC 35218 by standard disk assay.
For assay [1], the system named is Mycobacterium intracellulare. As to the kind of experiment: Antimicrobial activity against Mycobacterium intracellular […] by alamar blue assay. In general terms: Resazurin is reduced to fluorescent resorufin, in cell work by metabolically active cells.
Another assay deals with Pseudomonas aeruginosa. As to the kind of experiment: Antimicrobial activity against Pseudomonas aeruginosa ATCC 27853 by standard disk assay.
The test system of another assay is Aspergillus fumigatus. Kind of assay: Antimicrobial activity against Aspergillus fumigatus […] by standard disk assay.
A further assay relates to Staphylococcus aureus. Kind of assay: Antimicrobial activity against methicillin-resistant Staphylococcus aureus ATCC 43300 by standard disk assay.
Another assay has as its system Cryptococcus neoformans. Kind of assay: Antimicrobial activity against Cryptococcus neoformans ATCC 90113 by standard disk assay.
The next assay concerns Candida albicans. Kind of assay: Antimicrobial activity against Candida albicans ATCC 90028 by standard disk assay.

As to `COc1c(C)c2c(c(O)c1CC[C@H](C)C(=O)O)C(=O)OC2`, the outcome (in the assay on Escherichia coli; in assay [1]; in the assay with Pseudomonas aeruginosa; with Aspergillus fumigatus) was inactive.

For the molecule `Cc1c(O)c(CC[C@H](C)C(=O)O)c(O)c2c1COC2=O`, the outcome (in the assay on Escherichia coli; in assay [1]; with Pseudomonas aeruginosa; in the assay on Staphylococcus aureus; in the assay on Aspergillus fumigatus) was inactive.

As to `COC(=O)C[C@H](O)/C(C)=C/Cc1c(OC)c(C)c2c(c1OC)C(=O)OC2`, the outcome (with Escherichia coli; in assay [1]; in the assay with Pseudomonas aeruginosa; in the assay on Staphylococcus aureus; in the assay with Aspergillus fumigatus) was inactive.

`Cc1c(O)cc(O)c2c1COC2=O`: the outcome (with Escherichia coli; in assay [1]; in the assay with Pseudomonas aeruginosa; in the assay with Staphylococcus aureus; in the assay on Aspergillus fumigatus) was inactive.

For `COc1c(C)c2c(c(O)c1C/C=C(\C)[C@@H](O)CC(=O)O)C(=O)OC2`, the outcome (in the assay on Escherichia coli; in assay [1]; in the assay on Pseudomonas aeruginosa; with Staphylococcus aureus; in the assay with Aspergillus fumigatus) was inactive.

Usually IC50 stands for the concentration that gives 50% inhibition. Low readings indicate inhibition by little substance, high ones a need for much substance. Turning to `COc1c(C)c2c(c(O)c1C/C=C(\C)CCC(=O)O)C(=O)OC2` [MYCOPHENOLIC ACID], the outcome (in the assay with Escherichia coli; in assay [1]; in the assay with Pseudomonas aeruginosa; in the assay on Staphylococcus aureus; in the assay with Aspergillus fumigatus) was inactive. The IC50 stood at 15 µM in the assay on Cryptococcus neoformans and 8 µM in the assay on Candida albicans.
